The target of the experiment is T1, human GLP-1 receptor (Homo sapiens, UniProt P43220).
T1 construct: expressed in transfected cells
In words: GLP-1R cAMP Assay. In kind it is cell-based. As to conditions: cAMP accumulation in CHO cells stably overexpressing the human GLP-1 receptor; 30 min treatment; HitHunter cAMP kit; read-out: EC50. Summed up:
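CHO cells stably overexpressing human GLP-1R, 10,000 cells/well, treated with compound in 20-point dose response in triplicate for 30 min. cAMP accumulation read by enzyme-complementation luminescence after lysis and overnight incubation; dose-response curves fitted.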

T1 sequence (P43220 24-463): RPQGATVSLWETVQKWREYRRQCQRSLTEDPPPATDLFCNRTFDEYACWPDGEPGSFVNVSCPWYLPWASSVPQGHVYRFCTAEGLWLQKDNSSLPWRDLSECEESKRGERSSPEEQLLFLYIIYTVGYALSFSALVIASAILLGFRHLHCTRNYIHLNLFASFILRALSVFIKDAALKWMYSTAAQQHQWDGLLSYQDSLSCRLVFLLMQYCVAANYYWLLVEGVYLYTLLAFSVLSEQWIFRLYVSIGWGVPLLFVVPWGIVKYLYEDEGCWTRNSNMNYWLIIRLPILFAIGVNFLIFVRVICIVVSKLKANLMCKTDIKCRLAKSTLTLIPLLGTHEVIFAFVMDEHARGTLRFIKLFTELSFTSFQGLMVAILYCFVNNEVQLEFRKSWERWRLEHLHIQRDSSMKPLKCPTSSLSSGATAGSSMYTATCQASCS

As to `N#Cc1cc(F)ccc1OCc1cccc(CC2CCN(Cc3nc4ccc(C(=O)O)cc4n3C[C@@H]3CCO3)CC2)c1` [Compound 187, 2-{[4-({3-[(2-cyano-4-fluorophenoxy)methyl]phenyl}methyl)piperidin-1-yl]methyl}-1-{[(2S)-oxetan-2-yl]methyl}-1H-1,3-benzodiazole-6-carboxylic acid], the EC50 was less than 50 nM.

`O=C(O)c1ccc2nc(CN3CCN(C(=O)c4ccc(COc5ccccc5Cl)o4)CC3)n(C[C@@H]3CCO3)c2c1` [Compound 39, 2-[(4-{5-[(2-chlorophenoxy)methyl]furan-2-carbonyl}piperazin-1-yl)methyl]-1-{[(2S)-oxetan-2-yl]methyl}-1H-1,3-benzodiazole-6-carboxylic acid]: the concentration giving a half-maximal response (EC50) is more than 500 nM.

Turning to `N#Cc1ccc(COc2cccc(C3CCN(C(=O)c4ccc(-c5nnn[nH]5)cn4)CC3)n2)c(F)c1` [Compound 82, 3-fluoro-4-{[(6-{1-[5-(1H-1,2,3,4-tetrazol-5-yl)pyridine-2-carbonyl]piperidin-4-yl}pyridin-2-yl)oxy]methyl}benzonitrile], the EC50 is more than 500 nM.

`O=C(O)c1ccc2nc(CN3CCC(Oc4ccnc(COc5ccc(Cl)cc5CO)c4)CC3)n(CC3CCO3)c2c1` (stereo not shown) [Compound 292, 2-({4-[(2-{[4-chloro-2-(hydroxymethyl)phenoxy]methyl}pyridin-4-yl)oxy]piperidin-1-yl}methyl)-1-[(oxetan-2-yl)methyl]-1H-1,3-benzodiazole-6-carboxylic acid]: the EC50 is less than 50 nM.

`Cc1ccc(N(C)c2cccc(C(=O)N3CCN(Cc4nc5ccc(C(=O)O)cc5n4C[C@@H]4CCO4)CC3)c2)c(C)c1` [Compound 45, 2-[(4-{3-[(2,4-dimethylphenyl)(methyl)amino]benzoyl}piperazin-1-yl)methyl]-1-{[(2S)-oxetan-2-yl]methyl}-1H-1,3-benzodiazole-6-carboxylic acid]: the EC50 is less than 50 nM.

As to `Cc1ccc(OCc2cccc(CC3CCN(Cc4nc5ccc(C(=O)O)cc5n4C[C@@H]4CCO4)CC3)n2)c(CO)c1` [Example 146, (S)-2-((4-((6-((2-(Hydroxymethyl)-4-methylphenoxy)methyl)pyridin-2-yl)methyl)piperidin-1-yl)methyl)-1-(oxetan-2-ylmethyl)-1H-benzo[d]imidazole-6-carboxylic acid], the EC50 is less than 50 nM.

With `N#Cc1ccc(OCc2nccc(OC3CCN(Cc4nc5c(F)cc(C(=O)O)cc5n4CC4(CF)CC4)CC3)n2)c(F)c1` [Compound 314], the EC50 is less than 50 nM.

As for `COc1ccc(Oc2cccc(C(=O)N3CCN(Cc4nc5ccc(C(=O)O)cc5n4C[C@@H]4CCO4)CC3)c2)cc1` [Compound 6, 2-({4-[3-(4-methoxyphenoxy)benzoyl]piperazin-1-yl}methyl)-1-{[(2S)-oxetan-2-yl]methyl}-1H-1,3-benzodiazole-6-carboxylic acid], the EC50 was more than 500 nM.

On to `CCn1cncc1Cn1c(CN2CCC(=Cc3ccnc(COc4ccc(Cl)cc4Cl)c3)CC2)nc2ccc(C(=O)O)cc21` [Example 155, 2-((4-((2-((2,4-Dichlorophenoxy)methyl)pyridin-4-yl)methylene)piperidin-1-yl)methyl)-1-((1-ethyl-1H-imidazol-5-yl)methyl)-1H-benzo[d]imidazole-6-carboxylic acid], for which the concentration giving a half-maximal response (EC50) is less than 50 nM.

As for `O=C(O)c1cc(F)c2nc(CN3CCC(Oc4ccnc(COc5ccc(F)cc5Cl)n4)CC3)n(C[C@@H]3CCO3)c2c1` [Compound 329], the EC50 is less than 50 nM.

As for `C[C@H]1C[C@@H](Oc2ccnc(COc3ccc(C(F)(F)F)cc3F)n2)CCN1Cc1nc2ccc(C(=O)O)cc2n1C[C@@H]1CCO1` [Compound 376], the half-maximal effective concentration (EC50) was less than 50 nM.

For the compound `N#CCC1(Cn2c(CN3CCC(Oc4ccnc(COc5ccc(F)cc5C#N)n4)CC3)nc3ccc(C(=O)O)cc32)CC1` [Compound 348], the half-maximal effective concentration (EC50) is less than 50 nM.

With `CCn1cncc1Cn1c(CN2CCN(C(=O)c3ccc(COc4ccc(Cl)cc4Cl)s3)CC2)nc2ccc(C(=O)O)cc21` [Compound 71, 2-[(4-{5-[(2,4-dichlorophenoxy)methyl]thiophene-2-carbonyl}piperazin-1-yl)methyl]-1-[(1-ethyl-1H-imidazol-5-yl)methyl]-1H-1,3-benzodiazole-6-carboxylic acid], the EC50 was more than 500 nM.

`N#Cc1ccc(OCc2nccc(O[C@H]3CCN(Cc4nc5ccc(C(=O)O)cc5n4C[C@@H]4CCO4)[C@@H](CF)C3)n2)c(F)c1` [Example 490, 2-(((2R,4S)-4-((2-((4-Cyano-2-fluorophenoxy)methyl)pyrimidin-4-yl)oxy)-2-(fluoromethyl)piperidin-1-yl)methyl)-1-(((S)-oxetan-2-yl)methyl)-1H-benzo[d]imidazole-6-carboxylic acid]: the EC50 was less than 50 nM.

For the compound `C[C@H]1C[C@@H](Oc2ccnc(COc3ccc(C#N)cc3Cl)c2)CCN1Cc1nc2ccc(C(=O)O)cc2n1C[C@@H]1CCO1` [Compound 366], the EC50 is less than 50 nM.

For the compound `O=C(O)c1ccc2nc(CN3CCC(Oc4ccnc(COc5ccc(F)cc5C(F)F)c4)CC3)n(C[C@@H]3CCO3)c2c1` [Compound 357], the EC50 is less than 50 nM.

`O=C(O)c1ccc2nc(CN3CCC(Oc4cccc(COc5ccc(Cl)cc5Cl)n4)CC3)n(C[C@@H]3CCO3)c2c1` [Example 198, (S)-2-((4-((6-((2,4-Dichlorophenoxy)methyl)pyridin-2-yl)oxy)piperidin-1-yl)methyl)-1-(oxetan-2-ylmethyl)-1H-benzo[d]imidazole-6-carboxylic acid]: the EC50 is less than 50 nM.

`Cc1ccc(N(C)c2cccc(C3(N4CCN(Cc5nc6ccc(C(=O)O)cc6n5C[C@@H]5CCO5)CC4)CC3)c2)c(Cl)c1` [Example 105, (S)-2-((4-(1-(3-((2-chloro-4-methylphenyl)(methyl)amino)phenyl)cyclopropyl)piperazin-1-yl)methyl)-1-(oxetan-2-ylmethyl)-1H-benzo[d]imidazole-6-carboxylic acid]: the EC50 is more than 500 nM.

Turning to `O=C(O)c1ccc2nc(CN3CCC(Oc4ccnc(COc5ccc(Cl)cc5F)c4)CC3)n(Cc3ccno3)c2c1` [Compound 266, 2-{[4-({2-[(4-chloro-2-fluorophenoxy)methyl]pyridin-4-yl}oxy)piperidin-1-yl]methyl}-1-[(1,2-oxazol-5-yl)methyl]-1H-1,3-benzodiazole-6-carboxylic acid], the EC50 was less than 50 nM.

As to `CCn1cncc1Cn1c(CN2CCC(C(F)c3cccc(COc4ccc(C)cc4Cl)c3)CC2)nc2ccc(C(=O)O)cc21` (racemic) [Example 131, 2-((4-((3-((2-Chloro-4-methylphenoxy)methyl)phenyl)fluoromethyl)piperidin-1-yl)methyl)-1-((1-ethyl-1H-imidazol-5-yl)methyl)-1H-benzo[d]imidazole-6-carboxylic acid], the EC50 is less than 50 nM.

With `Cc1ccc(N(C)c2ccc(F)c(C(=O)N3CCN(Cc4nc5ccc(C(=O)O)cc5n4C[C@@H]4CCO4)CC3)c2)c(Cl)c1` [Compound 98, 2-[(4-{5-[(2-chloro-4-methylphenyl)(methyl)amino]-2-fluorobenzoyl}piperazin-1-yl)methyl]-1-{[(2S)-oxetan-2-yl]methyl}-1H-1,3-benzodiazole-6-carboxylic acid], the EC50 was less than 50 nM.

For `CCn1cncc1Cn1c(CN2CCC(Cc3cccc(COc4ccc(Cl)cc4Cl)n3)CC2)nc2ccc(C(=O)O)cc21` [Compound 140, 2-{[4-({6-[(2,4-dichlorophenoxy)methyl]pyridin-2-yl}methyl)piperidin-1-yl]methyl}-1-[(1-ethyl-1H-imidazol-5-yl)methyl]-1H-1,3-benzodiazole-6-carboxylic acid], the EC50 was less than 50 nM.

Consider `Cc1ccc(S(=O)(=O)Nc2cccc(C(=O)N3CCN(Cc4nc5ccc(C(=O)O)cc5n4C[C@@H]4CCO4)CC3)c2)cc1` [Compound 70, 2-({4-[3-(4-methylbenzenesulfonamido)benzoyl]piperazin-1-yl}methyl)-1-{[(2S)-oxetan-2-yl]methyl}-1H-1,3-benzodiazole-6-carboxylic acid], for which the EC50 was more than 500 nM.

For `N#Cc1ccc(COc2cccc(C(=O)N3CCN(Cc4nc5ccc(C(=O)O)cc5n4C[C@@H]4CCO4)CC3)c2)c(F)c1` [Compound 66, 2-[(4-{3-[(4-cyano-2-fluorophenyl)methoxy]benzoyl}piperazin-1-yl)methyl]-1-{[(2S)-oxetan-2-yl]methyl}-1H-1,3-benzodiazole-6-carboxylic acid], the EC50 was more than 500 nM.

For the compound `O=C(O)c1ccc2nc(CN3CCC(Cc4cnc(COc5ncc(C6CC6)cc5Cl)o4)CC3)n(C[C@@H]3CCO3)c2c1` [Example 136, (S)-2-((4-((2-(((3-Chloro-5-cyclopropylpyridin-2-yl)oxy)methyl)oxazol-5-yl)methyl)piperidin-1-yl)methyl)-1-(oxetan-2-ylmethyl)-1H-benzo[d]imidazole-6-carboxylic acid], the concentration for a half-maximal effect (EC50) was less than 50 nM.

Regarding `Cc1ccc(C(C)c2cccc(C(=O)N3CCN(Cc4nc5ccc(C(=O)O)cc5n4C[C@@H]4CCO4)CC3)c2)c(Cl)c1` (stereo partly drawn) [Example 112, 2-((4-(3-(1-(2-Chloro-4-methylphenyl)ethyl)benzoyl)piperazin-1-yl)methyl)-1-(((S)-oxetan-2-yl)methyl)-1H-benzo[d]imidazole-6-carboxylic acid], the EC50 is 50 to 500 nM.

Regarding `O=C(O)c1ccc2nc(CN3CCC(Cc4cc(F)cc(COc5ccc(Cl)cc5Cl)c4)CC3)n(C[C@@H]3CCO3)c2c1` [Compound 126, 2-{[4-({3-[(2,4-dichlorophenoxy)methyl]-5-fluorophenyl}methyl)piperidin-1-yl]methyl}-1-{[(2S)-oxetan-2-yl]methyl}-1H-1,3-benzodiazole-6-carboxylic acid], the 50% effective concentration (EC50) is 50 to 500 nM.

As to `O=C(O)c1ccc2nc(CN3CCC(Oc4cccc(COc5cc(Cl)cc(Cl)c5)c4)CC3)n(C[C@@H]3CCO3)c2c1` [Compound 242, 2-[(4-{3-[(3,5-dichlorophenoxy)methyl]phenoxy}piperidin-1-yl)methyl]-1-{[(2S)-oxetan-2-yl]methyl}-1H-1,3-benzodiazole-6-carboxylic acid], the EC50 was less than 50 nM.

For the origin of these results see patent US20230089073A1 (Carmot Therapeutics, Inc., priority 2021, published 2023).
